Source: patent publication US7534891B2, “Quinoline derivatives as H3R inverse agonists” (Hoffman-La Roche Inc., priority 2004, dated 2009)

target: T1, histamine 3 receptor (H3R), human HR3-CHO membranes (Homo sapiens, UniProt Q9Y5N1); assay: Competition binding assay with 3H-(R)α-methylhistamine on membranes of the human HR3-CHO cell line; details: displacement of 3H-(R)α-methylhistamine (1 nM), membrane of human HR3-CHO cell line; Ki calculated from IC50 by Cheng-Prusoff
T1 construct: expressed in transfected cells; host or cells: CHO cells (HR3-CHO cell line), membrane preparation
Description: Binding Assay with ^3H-(R)α-methylhistamine
Saturation binding experiments were performed using HR3-CHO membranes prepared as described in Takahashi, K, Tokita, S., Kotani, H. (2003) J. Pharmacol. Exp. Therapeutics 307, 213-218.
An appropriate amount of membrane (60 to 80 μg protein/well) was incubated with increasing concentrations of ^3H(R)α-Methylhistamine di-hydrochloride (0.10 to 10 nM). Non specific binding was determined using a 200 fold excess of cold (R)(X-Methylhistamine dihydrobromide (500 nM final concentration). The incubation was carried out at room temperature (in deep-well plates shaking for three hours). The final volume in each well was 250 pt. The incubation was followed by rapid filtration on GF/B filters (pre-soaked with 100 W of 0.5% PEI in Tris 50 mM shaking at 200 rpm for two hours). The filtration was made using a cell-harvester and the filter plates were then washed five times with ice cold washing buffer containing 0.5 M NaCl. After harvesting, the plates were dried at 55° C. for 60 min, then we added scintillation fluid (Microscint 40, 40 microl in each well) and the amount of radioactivity on the filter was determined in Packard top-counter after shaking the plates for two hours at 200 rpm at room temperature.
Binding Buffer: 50 mM Tris-HCl pH 7.4 and 5 mM MgCl2×6H2O pH 7.4. Washing Buffer: 50 mM Tris-HCl pH 7.4 and 5 mM MgCl2x6H2O and 0.5 M NaCl pH 7.4.
Indirect measurement of affinity of H3R inverse agonists: twelve increasing concentrations (ranging from 10 μM to 0.3 nM) of the selected compounds were always tested in competition binding experiments using membrane of the human HR3-CHO cell line. An appropriate amount of protein, e.g. approximately 500 cpm binding of RAMH at Kd, were incubated for 1 hour at room temperature in 250 μl final volume in 96-well plates in presence of ^3H(R)α-Methylhistamine (1 nM final concentration=Kd). […]
All compounds were tested at a single concentration in duplicates. […] Ki's were calculated from IC50 based on Cheng-Prusoff equation (Cheng, Y, Prusoff, W H (1973) Biochem Pharmacol 22, 3099-3108).

T1 sequence (Q9Y5N1 whole entry): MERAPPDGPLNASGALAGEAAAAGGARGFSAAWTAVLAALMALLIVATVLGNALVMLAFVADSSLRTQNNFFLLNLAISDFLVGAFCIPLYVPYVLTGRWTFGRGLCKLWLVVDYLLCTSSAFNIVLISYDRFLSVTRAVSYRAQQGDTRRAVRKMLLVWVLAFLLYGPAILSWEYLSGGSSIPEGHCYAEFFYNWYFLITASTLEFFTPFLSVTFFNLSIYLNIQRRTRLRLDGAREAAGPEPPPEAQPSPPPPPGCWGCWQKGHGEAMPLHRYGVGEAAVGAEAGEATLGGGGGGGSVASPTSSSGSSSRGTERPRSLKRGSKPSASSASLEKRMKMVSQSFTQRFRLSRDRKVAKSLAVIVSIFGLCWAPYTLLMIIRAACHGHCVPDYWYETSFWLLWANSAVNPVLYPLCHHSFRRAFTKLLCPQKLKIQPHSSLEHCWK

Ki	SMILES
450 nM	O=C(c1ccc2cc(OCCCN3CCCCC3)ccc2n1)N1CCCC1 [Example 64, [6-(3-piperidin-1-yl-propoxy)-quinolin-2-yl]-pyrrolidin-1-yl-methanone]
78 nM	CC(C)N1CCC(Oc2ccc3nc(C(=O)N4CCC4)ccc3c2)CC1 [Example 14, azetidine-1-yl-[6-(1-isopropyl-piperidin-4-yloxy)-quinolin-2-yl]-methanone]
200 nM	CC(C)N1CCC(Oc2ccc3nc(C(=O)N4CC=CC4)ccc3c2)CC1 [Example 2, (2,5-dihydro-pyrrol-1-yl)-[6-(1-isopropyl-piperidin-4-yloxy)-quinolin-2-yl]-methanone]
